Read-outs that look alike come from different tables or passages of the source.

Data set [1] can be described thus: Pharmacokinetic studies in mice (plasma levels by HPLC). The class given is in vivo. Here is the method: FIG. 18: Plasma Levels in Balb/c Mice Following Dose of 10 mg/kg body weight Given s/c.
Pharmacokinetic studies of VN/65-4 and VN/66-1 were measured in mice and were compared to VN/14-1 and VN/50A-1. Mice were dosed s.c. at 10 mg/kg using a vehicle, 45% β-cyclodextrin in water, and plasma levels were measured by HPLC. […] The results are summarized in Table 3 below and the profiles in FIG. 18.

The next data set concerns the target T1, RAR ? (Homo sapiens, UniProt P10826).
T1 construct: Recombinant full-length RAR proteins were expressed as S-Tag fusion proteins in BL21 E. coli cells; S-Tag; made in house; host or cells: E. coli BL21
T1 sequence (P10826 1-455): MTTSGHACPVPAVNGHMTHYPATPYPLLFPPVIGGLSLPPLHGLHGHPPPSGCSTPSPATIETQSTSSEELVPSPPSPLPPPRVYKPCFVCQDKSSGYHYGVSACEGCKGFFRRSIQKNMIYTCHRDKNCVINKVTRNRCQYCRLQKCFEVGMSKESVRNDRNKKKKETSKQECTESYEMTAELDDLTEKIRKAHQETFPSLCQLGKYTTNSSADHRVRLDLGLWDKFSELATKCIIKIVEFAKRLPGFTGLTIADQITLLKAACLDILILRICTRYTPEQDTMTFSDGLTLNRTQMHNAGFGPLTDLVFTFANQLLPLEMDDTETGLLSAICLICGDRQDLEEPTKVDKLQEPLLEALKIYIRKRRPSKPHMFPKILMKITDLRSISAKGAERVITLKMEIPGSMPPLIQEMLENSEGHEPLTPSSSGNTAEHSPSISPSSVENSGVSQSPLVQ
The experiment in a line: Competitive [3H]ATRA binding to recombinant RAR (third subtype). The note with it: for binding to RAR (third subtype): concentrations up to 500 nM. From the text:
(§1) Because the novel compounds are retinoid-related analogs, they bind to the retinoid receptors in vivo and thus have increased therapeutic potentials. Similar to ATRA, these novel compounds act as a ligand for the retinoic acid receptors (RARs, α, β, and γ) but not the retinoid X receptors (RXRs, α, β, and γ). […] (Nervi C, Grippo J F, Sherman M I, George M D, Jetten A M, Identification and characterization of nuclear retinoic acid-binding activity inhuman myeloblastic leukemia HL-60 cells, Proc Natl Acad Sci USA 86: 5854-5858, 1989) The dissociation constants for the inhibitors is determined by the well described charcoal absorption method (Yang N, Schule R, Mangelsdorf D J, Evans R M, Characterization of DNA binding and retinoic acid binding properties of retinoic acid receptor, Proc Natl Acad Sci USA 88: 3559-3663, 1991). Briefly, serial dilutions of the novel compounds (10^−11 to 10^−5 M) in dimethyl sulfoxide, 100 μL each is used. 12 mg of crude cytosolic extracts is prepared from pET15b (Novagen, Madison, Wis.)/hRAR-α, -β, and -γ prepared protein is used for each data point. All reactions are conducted in binding buffer (60 mM Na imidazole, 500 mM NaCl, 20 mM Tris, pH 7.9) for 14-16 hours at 4° C. in a final volume of 1 mL. Unbound [^3H]ATRA is removed by addition of 0.5 mL of equivalent-sized dextran-treated charcoal (final concentration 3% [wt/vol]) for 15 minutes at 4° C. […]
(§2) Since the RAMBAs are retinoic acid analogs, it is possible that some of the compounds may bind to retinoid receptors and function as either transcriptional agonists/antagonists or may display anti AP-1 activity (Chambon P, A decade of molecular biology of retinoic acid, FASEB J 10: 5899-5904, 19962. The ability of three RAMBAs, VN/14-1, VN/50A-1 and VN/66-1 to bind to the individual RAR receptors was thus evaluated in vitro. Recombinant full-length RAR proteins were expressed as S-Tag fusion proteins in BL21 E. coli cells used for competitive binding assays. Each competition-binding assay contained 1 nM [^3H] […]

Another data set deals with T2, RARγ (Homo sapiens, UniProt P13631).
T2 construct: Recombinant full-length RAR proteins were expressed as S-Tag fusion proteins in BL21 E. coli cells; S-Tag; made in house; host or cells: E. coli BL21
T2 sequence (P13631 1-454): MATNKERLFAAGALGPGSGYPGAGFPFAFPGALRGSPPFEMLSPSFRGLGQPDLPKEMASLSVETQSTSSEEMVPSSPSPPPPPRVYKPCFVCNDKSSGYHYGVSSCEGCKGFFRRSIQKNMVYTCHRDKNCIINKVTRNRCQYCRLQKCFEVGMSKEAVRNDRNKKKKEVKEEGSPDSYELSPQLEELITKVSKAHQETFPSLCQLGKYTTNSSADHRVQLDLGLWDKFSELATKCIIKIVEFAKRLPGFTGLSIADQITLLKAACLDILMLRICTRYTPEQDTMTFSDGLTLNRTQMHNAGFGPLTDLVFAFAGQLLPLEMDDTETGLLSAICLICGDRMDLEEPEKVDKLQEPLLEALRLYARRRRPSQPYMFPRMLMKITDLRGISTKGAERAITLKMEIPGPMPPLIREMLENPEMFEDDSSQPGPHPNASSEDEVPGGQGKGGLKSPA
The experiment in a line: Competitive [3H]ATRA binding to recombinant RARγ. The settings on record: for binding to RARγ: concentrations up to 500 nM.
Excerpt: as §1, §2

Another data set deals with T3, CYP17 (17-lyase) (Homo sapiens, UniProt P05093).
T3 sequence (P05093 1-508): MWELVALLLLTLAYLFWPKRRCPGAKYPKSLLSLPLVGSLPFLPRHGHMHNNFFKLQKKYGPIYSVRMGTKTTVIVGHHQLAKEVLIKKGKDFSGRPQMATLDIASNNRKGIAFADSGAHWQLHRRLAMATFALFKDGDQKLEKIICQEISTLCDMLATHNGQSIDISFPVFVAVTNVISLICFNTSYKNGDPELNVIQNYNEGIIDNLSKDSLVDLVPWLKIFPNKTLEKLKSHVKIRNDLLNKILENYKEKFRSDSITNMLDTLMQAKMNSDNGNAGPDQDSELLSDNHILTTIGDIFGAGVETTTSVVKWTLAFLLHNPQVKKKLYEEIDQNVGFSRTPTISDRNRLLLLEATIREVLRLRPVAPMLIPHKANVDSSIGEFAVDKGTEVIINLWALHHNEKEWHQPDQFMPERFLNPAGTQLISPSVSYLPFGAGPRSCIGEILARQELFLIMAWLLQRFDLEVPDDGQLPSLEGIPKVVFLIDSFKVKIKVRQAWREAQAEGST
The experiment in a line: Selectivity: effect on CYP17 (17-lyase). The format is biochemical. The note with it: concentration as high as 5 μM. The protocol:
The selectivity of the compounds of the present invention towards ATRA-4-hydroxylase was tested by measuring the effect on the key enzymes in the biosynthesis of estradiol and dehydroepiandrosterone, CYP19 (aromatase) and CYP17 (17-lyase), respectively.

Where [2] appears, read: mice, 10 mg/kg s.c., average of two animals.
[3] abbreviates: 1 nM [3H]ATRA, competitor 1 nM to 500 nM.

Take `CC1=C(/C=C/C(C)=C/C=C/C(C)=C/C(=O)O)C(C)(C)CCC1n1ccnc1` (racemic) [VN/14-1, (±)-4-(1H-imidazole-1-yl)retinoic acid]: in data set [1] (setting [2]), the AUC is reported as 567.80 μ/ml min, the highest concentration (Cmax) stood at 5020 ng/mL, the Tmax worked out at 30 min and the t1/2 was 68.4 min. For the same compound, the IC50 on RAR ? (setting [3]) was roughly 0.2 µM. Besides, the half-maximal inhibitory concentration (IC50) at RARγ (setting [3]) is roughly 0.016 µM. Also, the “inhibition of CYP17 (17-lyase)” value at CYP17 (17-lyase) is “barely inhibited”.

For the compound `CC(C=CC1=C(C)C(n2ccnc2)CCC1(C)C)=CC=CC(C)=CC(=O)Nc1ccc(O)cc1` (racemic) [VN/66-1, (±)-4-(1H-imidazol-1-yl), N-(4′-hydroxyphenyl)retinamide], the Cmax in data set [1] (Balb/c, mouse, plasma, sc, mice, 10 mg/kg s.c., average of two animals, read-out: Cmax) amounted to 16000 ng/mL. In addition, the “binding to RAR (third subtype)” value at RAR ? is “did not bind”. Also, the “binding to RARγ” value at RARγ was “did not bind”. At CYP17 (17-lyase), the “inhibition of CYP17 (17-lyase)” value is listed as “barely inhibited”.

For `CC(C=CC1=C(C)C(n2ccnc2)CCC1(C)C)=CC=CC(C)=CC(=O)n1ccnc1` (stereo not drawn) [VN/50A-1], the “time to complete elimination from plasma” value in data set [1] (after administration to mice, FIG. 18) is no more than 3 h. The “binding to RAR (third subtype)” value at RAR ? was “did not bind”. Besides, on RARγ, the “binding to RARγ” value is given as “did not bind”. Moreover, the “inhibition of CYP17 (17-lyase)” value against CYP17 (17-lyase) is on record as “barely inhibited”.

(Values after patent US20120122908A1, “Novel C-4 Substituted Retinoids” (University of Maryland, priority 2000, published 2012).)
